Assay results published in patent US11014898B1, “Benzothiazepine compounds and their use as bile acid modulators” (Albireo AB, priority 2020, dated 2021).

Key:
Human LBAT = biological target: T1, Human LBAT (Homo sapiens, UniProt Q14973); assay: LBAT (h) assay: 3H-taurocholic acid uptake in human LBAT-overexpressing cells; format: cell-based; details: 0.3 μM 3H-taurocholic acid and 7.5 μM cold taurocholic acid, 20 minutes, read-out: hLBAT IC50
T1 construct: expressed in transfected cells; cells kept under Geneticin selection
T1 sequence (Q14973 1-349): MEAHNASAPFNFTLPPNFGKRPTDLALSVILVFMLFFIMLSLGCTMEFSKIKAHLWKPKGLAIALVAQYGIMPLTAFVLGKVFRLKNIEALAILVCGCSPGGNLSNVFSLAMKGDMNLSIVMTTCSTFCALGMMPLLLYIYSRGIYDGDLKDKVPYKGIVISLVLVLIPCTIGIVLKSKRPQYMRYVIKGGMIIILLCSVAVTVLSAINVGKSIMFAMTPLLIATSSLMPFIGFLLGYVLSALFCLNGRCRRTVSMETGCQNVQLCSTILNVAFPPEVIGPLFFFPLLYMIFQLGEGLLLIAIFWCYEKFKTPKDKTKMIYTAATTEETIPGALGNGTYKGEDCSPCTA
Protocol: 20,000 cells (Human or Mouse LBAT-overexpressing cells) were seeded in 96-wells plate (Corning CLS3809) in 100 μL MEM-alpha medium (Gibco 12571-063) supplemented with 10% FBS (Gibco 10438026) containing Geneticin (Gibco 10131-027) (1 mg/mL) and incubated at 37° C. in 5% CO2 for 24 hours. After incubation, media was decanted from the wells and cells were washed two times with 300 μL of basal MEM-alpha medium (FBS-free). After decanting basal MEM-alpha medium each time, plates were tapped against paper towel to ensure maximum removal of residual media. For human LBAT, incubation mix was prepared by adding test inhibitor dilutions (3-fold serial dilution in DMSO (Sigma D2650), 10 points) in MEM-alpha (without FBS) containing 0.3 μM 3H-taurocholic acid (ARC ART-1368) and 7.5 μM cold taurocholic acid (Sigma T4009) (maintaining 0.2% final DMSO concentration). For mouse LBAT, incubation mix was prepared by adding test inhibitor dilutions (3-fold serial dilution in DMSO, 10 points) in MEM-alpha (without FBS) containing 0.3 μM 3H-taurocholic acid and 25 μM cold taurocholic acid maintaining 0.2% final DMSO concentration).
50 μL of incubation mix containing test inhibitors was then added to the wells (in duplicate) and the plates were incubated for 20 minutes in a CO2 incubator at 37° C. After incubation, the reaction was stopped by keeping the plates on ice water mix for 2-3 minutes and then the incubation mix was aspirated completely from the wells. The wells were washed two times with 250 μL of chilled unlabelled 1 mM taurocholic acid dissolved in HEPES (Gibco 15630080)-buffered (10 mM) HBSS (Gibco 14175079) (pH 7.4). The plates were tapped against a paper towel after every wash to ensure maximum removal of blocking buffer.
100 μL of MicroScint-20 (PerkinElmer 6013621) was added to the wells and kept overnight at room temperature before reading the plates in TopCount NXT™ Microplate Scintillation and Luminescence Counter from PerkinElmer under 3H Test protocol (set at 120 seconds reading time per well, with normal plate orientation).
(§1) All test compounds were provided in powder form at room temperature. 10 mM DMSO stocks of the test compounds were prepared, aliquoted and stored at −20° C. From the 10 mM DMSO stock of the compounds, a 3-fold serial dilution in DMSO was prepared to get a total of 10 dilutions of the test compounds. 0.5 μL of this dilution in DMSO was added to 250 μL of FBS-free basal media containing 3H-taurocholic acid and cold taurocholic acid to prepare the incubation mixture.

Human IBAT = biological target: T2, Human IBAT (Homo sapiens, UniProt Q12908); assay: IBAT (h) assay: 3H-taurocholic acid uptake in human IBAT-overexpressing cells; format: cell-based; details: 0.25 μM 3H-taurocholic acid and 5 μM cold taurocholic acid, 20 minutes, read-out: hIBAT IC50
T2 construct: expressed in transfected cells; cells kept under Puromycin selection
T2 sequence (Q12908 1-348): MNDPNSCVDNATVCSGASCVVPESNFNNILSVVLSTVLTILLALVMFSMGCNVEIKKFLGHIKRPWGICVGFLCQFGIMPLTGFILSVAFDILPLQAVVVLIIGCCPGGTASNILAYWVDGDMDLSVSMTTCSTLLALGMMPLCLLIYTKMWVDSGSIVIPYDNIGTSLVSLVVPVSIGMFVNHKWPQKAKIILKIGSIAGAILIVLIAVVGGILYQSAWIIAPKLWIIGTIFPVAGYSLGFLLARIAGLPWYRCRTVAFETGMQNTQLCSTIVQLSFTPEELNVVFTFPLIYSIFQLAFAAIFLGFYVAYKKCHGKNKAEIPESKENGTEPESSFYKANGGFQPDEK
Protocol: 10,000 cells (Human or Mouse IBAT-overexpressing cells) were seeded in 96-wells plate (Corning CLS3809) in 200 μL MEM-alpha medium (Gibco 12571-063) supplemented with 10% FBS (Gibco 10438026) containing Puromycin (Gibco A1113803) (10 μg/mL) and incubated at 37° C. in 5% CO2 for 48 hours. After incubation, media was decanted from the wells and cells were washed two times with 300 μL of basal MEM-alpha medium (FBS-free). After decanting basal MEM-alpha medium each time, plates were tapped against paper towel to ensure maximum removal of residual media. Test inhibitor dilutions (highest test concentration being 10 μM, 3-fold serial dilution, 10 points) prepared in DMSO (Sigma D2650) were added in incubation mix (maintaining 0.2% final DMSO concentration) containing 0.25 μM 3H-taurocholic acid (ARC ART-1368) and 5 μM of cold taurocholic acid (Sigma T4009). 50 μL of incubation mix containing test inhibitors was then added to the wells (in duplicate) and the plates were incubated for 20 minutes in a CO2 incubator at 37° C. After incubation, the reaction was stopped by keeping the plates on ice water mix for 2-3 minutes and then the incubation mix was aspirated completely from the wells. The wells were washed two times with 250 μL of chilled unlabelled 1 mM taurocholic acid dissolved in HEPES (Gibco 15630080)-buffered (10 mM) HBSS (Gibco 14175079) (pH 7.4). The plates were tapped against a paper towel after every wash to ensure maximum removal of blocking buffer.
100 μL of MicroScint-20 (PerkinElmer 6013621) was added to the wells and kept overnight at room temperature before reading the plates in TopCount NXT™ Microplate Scintillation and Luminescence Counter from PerkinElmer under 3H Test protocol (set at 120 seconds reading time per well).
as §1

| SMILES | IC50 (Human LBAT) | IC50 (Human IBAT) |
| --- | --- | --- |
| CCCCC1(CCCC)CN(c2ccc(Br)cc2)c2cc(SC)c(OCC(=O)O)cc2S(=O)(=O)C1 [Example 3, 2-((5-(4-bromophenyl)-3,3-dibutyl-7-(methylthio)-1,1-dioxido-2,3,4,5-tetrahydro-1,5-benzothiazepin-8-yl)oxy)acetic Acid] | 2820 nM | 26 nM |
| CCCCC1(CCCC)CN(c2ccc(O)cc2)c2cc(SC)c(OCC(=O)O)cc2S(=O)(=O)C1 [Example 4, 2-((3,3-dibutyl-5-(4-hydroxyphenyl)-7-(methylthio)-1,1-dioxido-2,3,4,5-tetrahydro-1,5-benzothiazepin-8-yl)oxy)acetic Acid] | 1990 nM | 15 nM |
